PubChem BioAssay AID1963829 (Molecular Pharmacology Branch, DTP, NCI, 2024)

Tested on: 935938-334-R-J1-PDC complex spheroid viability
Assay: Anticancer human tumor 935938-334-R-J1-PDC patient-derived small intestine adenocarcinoma cell line growth inhibition [POLQ]
Details: for IC50: curve of first compound; for viability, T/C: stronger effect = lower value
Procedure, shortened: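 Growth inhibition in 3D: complex spheroids (tumor PDC, HUVEC, MSC) treated with POLQ inhibitor combinations; where Cmax unknown, highest tested concentration 10 microM, except SN-38 at 1 microM.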

[1] = second compound 0.0316 µM, first compound 0.0316 µM
[2] = second compound 0.0316 µM, first compound 0.1 µM
[3] = second compound 0.1 µM, first compound 0.0316 µM
[4] = second compound 0.1 µM, first compound 0.1 µM
[5] = second compound 0.316 µM, first compound 0.0316 µM
[6] = second compound 0.316 µM, first compound 0.1 µM
[7] = second compound 1 µM, first compound 0.0316 µM
[8] = second compound 1 µM, first compound 0.1 µM
[9] = second compound 3.16 µM, first compound 0.0316 µM
[10] = second compound 3.16 µM, first compound 0.1 µM
[11] = second compound 10 µM, first compound 0.0316 µM
[12] = second compound 10 µM, first compound 0.1 µM
[13] = second compound 0.0316 µM, first compound 0.000316 µM
[14] = second compound 0.0316 µM, first compound 0.001 µM
[15] = second compound 0.0316 µM, first compound 0.00316 µM
[16] = second compound 0.0316 µM, first compound 0.01 µM
[17] = second compound 0.1 µM, first compound 0.000316 µM
[18] = second compound 0.1 µM, first compound 0.001 µM
[19] = second compound 0.1 µM, first compound 0.00316 µM
[20] = second compound 0.1 µM, first compound 0.01 µM
[21] = second compound 0.316 µM, first compound 0.000316 µM
[22] = second compound 0.316 µM, first compound 0.001 µM
[23] = second compound 0.316 µM, first compound 0.00316 µM
[24] = second compound 0.316 µM, first compound 0.01 µM
[25] = second compound 1 µM, first compound 0.000316 µM
[26] = second compound 1 µM, first compound 0.001 µM
[27] = second compound 1 µM, first compound 0.00316 µM
[28] = second compound 1 µM, first compound 0.01 µM
[29] = second compound 3.16 µM, first compound 0.000316 µM
[30] = second compound 3.16 µM, first compound 0.001 µM
[31] = second compound 3.16 µM, first compound 0.00316 µM
[32] = second compound 3.16 µM, first compound 0.01 µM
[33] = second compound 10 µM, first compound 0.000316 µM
[34] = second compound 10 µM, first compound 0.001 µM
[35] = second compound 10 µM, first compound 0.00316 µM
[36] = second compound 10 µM, first compound 0.01 µM
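Further: spheroids exposed to drugs for seven days before viability read.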
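Wherever viability, T/C is given: 100% = DMSO vehicle control wells.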

## CCCS(=O)(=O)Nc1ccc(F)c(C(=O)c2c[nH]c3ncc(-c4ccc(Cl)cc4)cc23)c1F + Cc1cccc(N(C)C(=O)C2C(O)CCN2c2nc(C)cc(C(F)(F)F)c2C#N)c1
Second compound 0.0316 µM
  IC50: > 10000 nM
Second compound 0.1 µM
  IC50: 9270 nM
Second compound 0.316 µM
  IC50: 9180 nM
Second compound 1 µM
  IC50: 9750 nM
Second compound 3.16 µM
  IC50: > 10000 nM
Second compound 10 µM
  IC50: 9010 nM
[1]
  viability, T/C: 85.3%
[2]
  viability, T/C: 97.4%
Second compound 0.0316 µM, first compound 0.316 µM
  viability, T/C: 117%
Second compound 0.0316 µM, first compound 1 µM
  viability, T/C: 147%
Second compound 0.0316 µM, first compound 3.16 µM
  viability, T/C: 146%
Second compound 0.0316 µM, first compound 10 µM
  viability, T/C: 51%
[3]
  viability, T/C: 114%
[4]
  viability, T/C: 119%
Second compound 0.1 µM, first compound 0.316 µM
  viability, T/C: 166%
Second compound 0.1 µM, first compound 1 µM
  viability, T/C: 121%
Second compound 0.1 µM, first compound 3.16 µM
  viability, T/C: 112%
Second compound 0.1 µM, first compound 10 µM
  viability, T/C: 45%
[5]
  viability, T/C: 97.4%
[6]
  viability, T/C: 115%
Second compound 0.316 µM, first compound 0.316 µM
  viability, T/C: 119%
Second compound 0.316 µM, first compound 1 µM
  viability, T/C: 120%
Second compound 0.316 µM, first compound 3.16 µM
  viability, T/C: 120%
Second compound 0.316 µM, first compound 10 µM
  viability, T/C: 44.8%
[7]
  viability, T/C: 95.7%
[8]
  viability, T/C: 125%
Second compound 1 µM, first compound 0.316 µM
  viability, T/C: 121%
Second compound 1 µM, first compound 1 µM
  viability, T/C: 148%
Second compound 1 µM, first compound 3.16 µM
  viability, T/C: 131%
Second compound 1 µM, first compound 10 µM
  viability, T/C: 48.2%
[9]
  viability, T/C: 88.9%
[10]
  viability, T/C: 108%
Second compound 3.16 µM, first compound 0.316 µM
  viability, T/C: 123%
Second compound 3.16 µM, first compound 1 µM
  viability, T/C: 151%
Second compound 3.16 µM, first compound 3.16 µM
  viability, T/C: 113%
Second compound 3.16 µM, first compound 10 µM
  viability, T/C: 51.4%
[11]
  viability, T/C: 106%
[12]
  viability, T/C: 109%
Second compound 10 µM, first compound 0.316 µM
  viability, T/C: 127%
Second compound 10 µM, first compound 1 µM
  viability, T/C: 146%
Second compound 10 µM, first compound 3.16 µM
  viability, T/C: 149%
Second compound 10 µM, first compound 10 µM
  viability, T/C: 42.1%

## Cn1ncnc1[C@H]1c2n[nH]c(=O)c3cc(F)cc(c23)N[C@@H]1c1ccc(F)cc1 + Cc1cccc(N(C)C(=O)C2C(O)CCN2c2nc(C)cc(C(F)(F)F)c2C#N)c1
Second compound 0.0316 µM
  IC50: > 100 nM
Second compound 0.1 µM
  IC50: > 100 nM
Second compound 0.316 µM
  IC50: > 100 nM
Second compound 1 µM
  IC50: > 100 nM
Second compound 3.16 µM
  IC50: > 100 nM
Second compound 10 µM
  IC50: > 100 nM
[13]
  viability, T/C: 143%
[14]
  viability, T/C: 88.6%
[15]
  viability, T/C: 102%
[16]
  viability, T/C: 94.5%
[1]
  viability, T/C: 97.8%
[2]
  viability, T/C: 102%
[17]
  viability, T/C: 85.5%
[18]
  viability, T/C: 91.3%
[19]
  viability, T/C: 107%
[20]
  viability, T/C: 143%
[3]
  viability, T/C: 111%
[4]
  viability, T/C: 70%
[21]
  viability, T/C: 108%
[22]
  viability, T/C: 107%
[23]
  viability, T/C: 80.5%
[24]
  viability, T/C: 108%
[5]
  viability, T/C: 91%
[6]
  viability, T/C: 83.4%
[25]
  viability, T/C: 89.8%
[26]
  viability, T/C: 99.6%
[27]
  viability, T/C: 97.7%
[28]
  viability, T/C: 82.1%
[7]
  viability, T/C: 114%
[8]
  viability, T/C: 60.4%
[29]
  viability, T/C: 125%
[30]
  viability, T/C: 80.8%
[31]
  viability, T/C: 105%
[32]
  viability, T/C: 88.5%
[9]
  viability, T/C: 89.9%
[10]
  viability, T/C: 89.6%
[33]
  viability, T/C: 103%
[34]
  viability, T/C: 87.5%
[35]
  viability, T/C: 77.6%
[36]
  viability, T/C: 118%
[11]
  viability, T/C: 87.9%
[12]
  viability, T/C: 89%

## Cn1ncnc1[C@H]1c2n[nH]c(=O)c3cc(F)cc(c23)N[C@@H]1c1ccc(F)cc1 + Nc1ccc(C#CCN(C(=O)Cc2ncc(C(F)(F)F)cc2C(F)(F)F)c2ccc(F)cc2)nn1
Second compound 0.0316 µM
  IC50: > 100 nM
Second compound 0.1 µM
  IC50: > 100 nM
Second compound 0.316 µM
  IC50: > 100 nM
Second compound 1 µM
  IC50: > 100 nM
Second compound 3.16 µM
  IC50: > 100 nM
Second compound 10 µM
  IC50: > 100 nM
[13]
  viability, T/C: 98%
[14]
  viability, T/C: 106%
[15]
  viability, T/C: 94.5%
[16]
  viability, T/C: 73.1%
[1]
  viability, T/C: 83.9%
[2]
  viability, T/C: 101%
[17]
  viability, T/C: 68%
[18]
  viability, T/C: 103%
[19]
  viability, T/C: 88.4%
[20]
  viability, T/C: 97.9%
[3]
  viability, T/C: 86.5%
[4]
  viability, T/C: 92.9%
[21]
  viability, T/C: 102%
[22]
  viability, T/C: 104%
[23]
  viability, T/C: 107%
[24]
  viability, T/C: 105%
[5]
  viability, T/C: 106%
[6]
  viability, T/C: 76.9%
[25]
  viability, T/C: 95.5%
[26]
  viability, T/C: 85.5%
[27]
  viability, T/C: 91.9%
[28]
  viability, T/C: 79%
[7]
  viability, T/C: 96.6%
[8]
  viability, T/C: 85.1%
[29]
  viability, T/C: 69%
[30]
  viability, T/C: 81.4%
[31]
  viability, T/C: 88.1%
[32]
  viability, T/C: 86.9%
[9]
  viability, T/C: 85.1%
[10]
  viability, T/C: 111%
[33]
  viability, T/C: 107%
[34]
  viability, T/C: 106%
[35]
  viability, T/C: 106%
[36]
  viability, T/C: 94.3%
[11]
  viability, T/C: 99.5%
[12]
  viability, T/C: 92%
